Experiments:
[1] = tested on: A549; assay: Proliferation assay, 50% growth inhibitory concentration; type: cell-based; details: Homo sapiens, 24 h; A549, p53 positive; after 1 day of exposure
Description: (§1) All cell lines were grown in RPMI 1640 medium supplemented with 5% fetal bovine serum and 5% CO2. All experiments were done when the cells were 70% confluent. For cell growth measurements, 5×10^4 cells were plated in each well of six-well plates. Control and BZ-treated (0.05 μg/ml) cells were trypsinized and counted using a hemocytometer. Experiments were done in triplicate and the mean and standard deviation were determined by standard methods.
(§2) Studies to determine the IC50 for fenbendazole and mebendazole were performed on a panel of six different human cancer cell lines: two carrying the wild-type p53 gene and actively expressing the p53 protein, (H460 and A549); one marked by homozymes deletion of the p53 gene and lacking p53 gene expression (H358); two expressing mutant p53 (H322 and H596); and one in which wild-type p53 is inactivated by human papilloma virus E6 protein. […] A dose of 166 nM (˜[…]) was chosen for these studies because it had been shown previously that this concentration was sufficient to induce wild-type p53 after 24 h of treatment.

[2] = tested on: H322; assay: as above; type: cell-based; details: Homo sapiens, NCI-H322, 24 h; H322, p53 mutated; after 1 day of exposure
Description: as §1, §2

[3] = tested on: H358; assay: as above; type: cell-based; details: Homo sapiens, NCI-H358, 24 h; H358, p53 deleted; after 1 day of exposure
Description: as §1, §2

[4] = tested on: H460; assay: as above; type: cell-based; details: Homo sapiens, NCI-H460, 24 h; H460, p53 positive; inhibit growth by 50% after 1 day of exposure
Description: as §1, §2

[5] = tested on: H596; assay: as above; type: cell-based; details: Homo sapiens, NCI-H596, 24 h; H596, p53 mutated; after 1 day of exposure
Description: as §1, §2

[6] = tested on: HeLa (p53 inactivated); assay: as above; type: cell-based; details: Homo sapiens, 24 h, after 1 day of exposure
Description: as §1, §2

[7] = tested on: Saos-2; assay: Cell viability, trypan blue cell count assay; type: cell-based; details: Homo sapiens, Saos-2 (osteosarcoma, p53 deleted), 100% = untreated cells
[8] = tested on: p53, p21, MDM2, Bcl-2, Cyclin A, Cyclin D, Cdc 2, Bcl-XL, Bax, Rb and Cdk-2; assay: Western blot of proteins of apoptotic pathways in H460 whole-cell extracts; type: cell-based, human; details: 0.05 μg/ml for 24 hr
Description: Cells were grown in 6-cm dishes, cultured, and treated as described above. To prepare the whole-cell lysates, the medium was removed and cells were washed twice with ice-cold Tris-buffered saline (TBS) (150 mM NaCl, 10 mM Tris; pH 7.6) and lysed with 0.5 ml of lysis buffer (10 mM Tris, 150 mM NaCl, 1% Triton X-100, 5 mM EDTA, 25 mM glycerphosphate, 1 mM phenylmethylsulphonyl fluoride (PMSF), 2 mM benzamidine, […], and 1 mM sodium orthovanadate) for 15 min. The lysed cells were then transferred to 1.5 ml microtubes, centrifuged at 15,000×g for 10 min at 4° C., and the supernatants collected mixed with Laemmli's sample buffer and subjected to western blot analysis as described elsewhere (Nare et al., 1994). Blots were probed with anti-p53 monoclonal antibody Bp53-12 (Santa Cruz Biotechnology, Inc.) and the immunocomplex was detected by the Enhanced Chemiluminescence kit according to the manufacturer's directions (Amersham).
To rule out the possibility that FZ and MZ have an effect on other proteins known to have a role in various apoptotic pathways, the inventors evaluated the effect of these drugs on a panel of such proteins. […] Specifically, the levels of these proteins were evaluated by Western blot analyses before and after exposure to 0.05 μg/ml FZ or MZ for 24 hr using whole-cell extracts. […] The protein level of the phosphorylated form of Rb also remained unchanged after treatment.

[9] = tested on: p21/WAF1 transcript; assay: Northern blot analysis in H460 cells; type: cell-based, human; details: at the time the p53 level peaked
Description: (§3) Total RNA was isolated from the subconfluent cultures using the guanidinium thisocyanate method (Lacey, 1988). After this 20 μg of the RNA was electrophoresed in a denaturing 1.2% agarose/morpholinepropanesulfonic acid (MOPS)-formaldehyde gel, transferred onto a nitrocellulose membrane, and hybridized to a ^32P-radiolabeled p53 cDNA probe, as described elsewhere (Lubiga and Prichard, 1990). The ^32P-labeled probes were generated using random primers (>8×10^8 cpm/μg). Blots were washed at 65° C. in 2× standard saline citrate (SSC) for 30 min and then washed twice at 60° C. in 0.1% sodium dodecyl sulfate (SDS) and 0.1×SSC. The cDNA probes used were 1.2-kb human p53 cDNA and an 800-bp fragment of human p21 cDNA.
(§4) Cell extracts were prepared from H460 cells exposed to 0.05 μg/ml FZ or MZ for various durations (1 to 24 hr). The effect of FZ and MZ on the nuclear accumulation of p53 appeared to be gradual and was not significant within the first hour of exposure. […] The appearance of p53 in response to drug treatment also coincided with the initiation of apoptosis, which was detectable by 24 hr, as well as shown earlier by TdT FACS analysis. […] Total RNA was extracted and […] was used for the analysis. p53 protein was detected by immunoblot analysis.

[10] = tested on: p53 mRNA; assay: Northern blot analysis in H460 cells; type: cell-based, human; details: 0.05 μg/ml, 24 hr
Description: as §3, §4

[11] = tested on: p53 protein; assay: p53 protein stability, pulse-chase with cycloheximide in H460; type: cell-based, human
Description: Cells were treated with 0.05 μg/ml fenbendazole or mebendazole for 24 h. After this, control (mock-treated) and drug-treated H460 cells were incubated with 10 μg/ml cycloheximide in drug-free medium for different times and then processed to obtain total cell extracts. Finally, samples were denatured by boiling them in SDS-loading buffer (100 mM Tris, pH 6.8; 2% SDS; 0.1% bromphenol blue; 10% glycerol; 25 μM β-mercaptoethanol) and loaded onto a 10% SDS-polyacrylamide gel. Blots were probed with anti-p53 monoclonal antibody B p53-12 (Santa Cruz Biotechnology, Inc.) and anti-actin monoclonal antibody (Amersham). The immunocomplexes were detected using the Enhanced Chemiluminescence kit according to the manufacturer's directions as described above. The intensities of the bands were quantitated with a PhosphoImager using ImageQuant™ Software (Molecular Dynamics, Sunnyvale, Calif.).
H460 cells were treated with 0.05 μg/ml FZ for 24 hr, and then both untreated control and treated cells were washed with PBS and treated with 24 μg/ml cyclohexamide. After that, cells were harvested at different times. The total cell protein was extracted and analyzed on a 10% polyacrylamide-gel, followed by Western blot analysis using p53 and actin monoclonal antibodies. […]
Data from the pulse-chase experiments were quantitated with a PhosphoImager using ImageQuant™ software. […]

[12] = tested on: p53 protein; assay: p53 induction, immunoblot analysis of nuclear extracts; type: cell-based, human; design: p53 Induction: dose or concentration left out as unconfirmed

| SMILES | IC50 [1] | IC50 [2] | IC50 [3] | IC50 [4] | IC50 [5] | IC50 [6] | viability at 0.05 µg/mL [7] | levels of Bcl-2, Cyclin A, Cyclin D, Cdc 2, Bcl-XL, Bax, Rb and Cdk-2 [8] | levels of nuclear p53, p21 and MDM2 [8] | level of the p21/WAF1 transcript [9] | p53 mRNA levels [10] | effect on half-life of the p53 protein [11] | p53 Induction ([12]; H226Br) | p53 Induction ([12]; H322) | p53 Induction ([12]; H358) | p53 Induction ([12]; H460) | p53 Induction ([12]; H549) | p53 Induction ([12]; H596) | p53 Induction ([12]; H1299) | p53 Induction ([12]; HeLa) | also measured |
| --- | --- | --- | --- | --- | --- | --- | --- | --- | --- | --- | --- | --- | --- | --- | --- | --- | --- | --- | --- | --- | --- |
| COC(=O)Nc1nc2ccc(Sc3ccccc3)cc2[nH]1 [Fenbendazole, methy 5-(phenylthio)-2-benzimidazole-2-carbamate] | 123 nM | 816 nM | 654 nM | 152 nM | 643 nM | 853 nM | 76.5 ± 5.9% | no changes | enhanced | significantly increased | no significant changes | prolong the half-life | No | No | No | Yes | Yes | No | No | No | concentration at which induction of p53 became detectable ([12]; H460): 0.01 µg/mL; induction of p53 production ([12]; HeLa (HPV-18) and SiHa (HPV-16) cells, 48 h, total cell proteins): no induction; p53 Induction ([12]; Hep 3B): No; p53 Induction ([12]; MCF-7): Yes; p53 Induction ([12]; MDA 231): No; p53 Induction ([12]; RD): No; p53 Induction ([12]; SK-OV-433): Yes; p53 Induction ([12]; SW480): No; p53 Induction ([12]; Saos-2): No; p53 Induction ([12]; SiHa): No |
| COC(=O)Nc1nc2ccc(C(=O)c3ccccc3)cc2[nH]1 [Mebendazole, Methyl 5-benzoylbenzimidazole-2-carbamate] | 130 nM | 871 nM | 893 nM | 106 nM | 601 nM | 400 nM | 65.4 ± 10.1% | no changes | enhanced | significantly increased | no significant changes | prolong the half-life | No | No | No | Yes | Yes | No | No | No | p53 Induction ([12]; Hep 3B): No; p53 Induction ([12]; MCF-7): Yes; p53 Induction ([12]; MDA 231): No; p53 Induction ([12]; RD): No; p53 Induction ([12]; SK-OV-433): Yes; p53 Induction ([12]; SW480): No; p53 Induction ([12]; Saos-2): No; p53 Induction ([12]; SiHa): No |

Source: patent US7423015B1, “Antihelminthic drugs as a treatment for hyperproliferative diseases” (Board of Regents, The University of Texas System, priority 2001, dated 2008)
